Values after ≈ are worked out from the molar mass of the structure shown. Values joined by “and” are separate entries in the source; they are usually repeats but may differ in a detail not shown here. Equal values may be shown once. Read-outs that look alike come from different tables or passages of the source. One block for each molecule: values may come before it.
Experiments:
[1] = test system: Candida albicans; experiment: CLSI broth microdilution MIC (Example 4); type: cell-based; settings: for antifungal activity against the two isolates of Candida albicans: summary in words
Procedure, shortened: (§1)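 CLSI broth microdilution in RPMI 1640 with two-fold compound dilutions and inoculum about 2×10^3 cells/mL. Plates incubated 35° C for 24-48 hours; MICs determined in duplicate, with a third test when the duplicates differed.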

[2] = test system: Cryptococcus neoformans; experiment: CLSI broth microdilution MIC (Example 4); type: cell-based
Procedure, shortened: as §1

[3] = test system: C. gattii; experiment: CLSI broth microdilution MIC (Example 6); type: cell-based, Cryptococcus gattii
Procedure, shortened: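 CLSI broth microdilution in RPMI 1640, compounds serially double-diluted, inoculum about 2×10^3 cells/mL. Incubation at 35° C for 24-48 hours. MICs determined per isolate in duplicate, with a third repeat if values differed.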

[4] = test system: Candida albicans ATCC14053; experiment: Broth micro-dilution screen at 16 μg/mL and MIC (Example 9); type: cell-based; settings: for MIC: C. albicans ATCC14053, test range 0.25-64 μg/mL, duplicate; for Screen at 16 μg/mL: single concentration 16 μg/mL, Growth or No growth of C. albicans ATCC14053
Experimental: The antifungal activity of 201 NCL analogs against Candida albicans ATCC14053 in vitro was investigated. A broth micro-dilution method was used, according to CLSI guidelines as described. NCL analogs were dissolved in DMSO and originally screened at a single concentration of 16 μg/mL.

[5] = test system: Malassezia pachydermatis; experiment: Checkerboard MIC/FICI of NCL812 and EDTA (Example 2); type: cell-based; settings: for MIC: Malassezia pachydermatis, read-out: MIC, compound alone; for MIC, combination: EDTA + NCL812 combination; for FICI: NCL812 with EDTA
Source text: There is no recommended CLSI standard for M. pachydermatis. In the literature there are a number of papers which have developed MIC methodology for Malassezia species isolated from both humans and animals (ie both lipophilic and non-lipophilic species). In all papers the methodology has been altered from the original CLSI protocols in order to overcome four main problem areas involved in testing this yeast. • 1) Finding a suitable growth medium for Malassezia, especially the lipophilic species. […] The method followed was originally developed by Eichenberg et al. (2003) (mSAB broth microdilution method). The mSAB method was devised to follow as closely as possible the CLSI guidelines whilst still allowing for the distinct biochemical and growth requirements of M. pachydermatis. […] Briefly, 150 μl of SDB+1% TW80 was added to each well of a 96-well microtiter plate, which was used as the checkerboard challenge plate. Next, a two-fold serial dilution of NCL 812 (robenidine) working solution was performed along the abscissa (column 3 to 12 only) (1/2 to 1/1024 dilution ratio). […] Experiments were performed in duplicate and repeated twice. […] The FICI values were interpreted as follows (Hamoud et al., 2015).

[6] = test system: Candida albicans; experiment: as above; type: cell-based; settings: isolate Candida albicans
[7] = human clinical isolate C. gattii 16-90050373
[8] = human clinical isolate C. gattii 17-90028211

MIC at 24-48 hours ([1]; Candida albicans ATCC 90028): 2 µg/mL (≈ 5.56 µM)
MIC at 24-48 hours ([1]; Candida albicans SA3): 2 µg/mL (≈ 5.56 µM)
MIC at 24-48 hours ([2]; Cryptococcus neoformans SA1): 2 µg/mL (≈ 5.56 µM)
MIC at 24-48 hours ([2]; Cryptococcus neoformans SA2): 2 µg/mL (≈ 5.56 µM)
MIC ([3]; human clinical isolate C. gatti 17-90232099): 2 µg/mL (≈ 5.56 µM)
MIC [3, 7]: 2 µg/mL (≈ 5.56 µM)
MIC [3, 8]: 2 µg/mL (≈ 5.56 µM)
MIC ([3]; human clinical isolate C. gattii 17-90028217): 2 µg/mL (≈ 5.56 µM)
MIC ([3]; human clinical isolate C. gattii 17-90028242): 2 µg/mL (≈ 5.56 µM)
MIC [4]: 1 µg/mL and 2 µg/mL
Compound: Cc1ccc(/C=N/Nc2cc(N/N=C/c3ccc(C)cc3)nc(N)n2)cc1 [NCL195]
antifungal activity against the two isolates of Candida albicans [1]: high antifungal activity
Screen at 16 μg/mL [4]: No growth

MIC ([5]; isolate ML18): 1 µg/mL
MIC ([5]; isolate ML19): 2 µg/mL
MIC ([5]; isolate ML20): 1 µg/mL
MIC ([5]; isolate ML21): 2 µg/mL
MIC ([5]; isolate ML36): 2 µg/mL
MIC ([5]; isolate ML41): 2 µg/mL
MIC ([5]; isolate ML42): 2 µg/mL
MIC ([5]; isolate ML43): 4 µg/mL
MIC ([5]; isolate ML44): 1 µg/mL
MIC ([5]; isolate ML69): 2 µg/mL
MIC, combination ([5]; isolate ML18): 0.5 µg/mL
MIC, combination ([5]; isolate ML19): 1 µg/mL
MIC, combination ([5]; isolate ML20): 0.5 µg/mL
MIC, combination ([5]; isolate ML21): 1 µg/mL
MIC, combination ([5]; isolate ML36): 1 µg/mL
MIC, combination ([5]; isolate ML41): 0.5 µg/mL
MIC, combination ([5]; isolate ML42): 1 µg/mL
MIC, combination ([5]; isolate ML43): 2 µg/mL
MIC, combination ([5]; isolate ML44): 0.5 µg/mL
MIC, combination ([5]; isolate ML69): 1 µg/mL
MIC, combination ([6]; EDTA + NCL812 combination): 1 µg/mL
MIC ([6]; read-out: MIC, compound alone): 4 µg/mL
MIC ([1]; ATCC90028, read-out: MIC at 24-48 hours, Candida albicans ATCC 90028): 2 µg/mL (≈ 5.98 µM)
MIC ([1]; read-out: MIC at 24-48 hours, Candida albicans SA3): 2 µg/mL (≈ 5.98 µM)
MIC at 24-48 hours ([2]; Cryptococcus neoformans SA2): 2 µg/mL (≈ 5.98 µM)
MIC ([2]; read-out: MIC at 24-48 hours, Cryptococcus neoformans SA1): 2 µg/mL (≈ 5.98 µM)
MIC ([2]; two isolates of Cryptococcus neoformans, summary range, read-out: MICs): 1 to 16 µg/mL (≈ 2.99 to 47.9 µM)
MIC ([3]; Cryptococcus gattii, human clinical isolate C. gattii 17-90028217, read-out: MIC): 16 µg/mL (≈ 47.9 µM)
MIC [3, 7]: 16 µg/mL (≈ 47.9 µM)
MIC [3, 8]: 16 µg/mL (≈ 47.9 µM)
MIC ([4]; Candida albicans, read-out: MIC): 0.5 µg/mL (≈ 1.5 µM)
Compound: N=C(N/N=C/c1ccc(Cl)cc1)N/N=C/c1ccc(Cl)cc1 [NCL812, robenidine, reference compound]
interaction of NCL812 and EDTA (FICI interpretation) ([5]; each of the 11 isolates (10 Malassezia, 1 Candida albicans)): Synergy (FICI ≤ 0.5)
FICI ([5]; isolate ML18): 1
FICI ([5]; isolate ML19): 1
FICI ([5]; isolate ML20): 1
FICI ([5]; isolate ML21): 1
FICI ([5]; isolate ML36): 1
FICI ([5]; isolate ML41): 0.75
FICI ([5]; isolate ML42): 1
FICI ([5]; isolate ML43): 1
FICI ([5]; isolate ML44): 1
FICI ([5]; isolate ML69): 1
FICI ([6]; NCL812 with EDTA): 0.75
antifungal activity against the two isolates of Candida albicans [1]: high antifungal activity
activity against Candida albicans at the low discriminating concentration ([4]; 16 μg/mL screen, summary in words): high activity
Screen at 16 μg/mL [4]: No growth

From patent US20230310388A1, “Methods and Compositions for Treating Fungal Infections” (Neoculi Pty Ltd, priority 2020, published 2023)
